A short description of experiment [1]: Oxidation of arachidonic acid (decreased turbidity and hydroperoxide formation).
Experiment [2] is described as follows: Anti-oxidant activity (comparative Table 6). To be noted: read-out: IC-50 Anti-Oxidant Activity; nd = not detectable at ≤ 500 uM.
For experiment [3], the system named is PLA2. The experiment can be described thus: Anti-PLA2 activity (comparative Table 6). The format is biochemical. To be noted: nd = not detectable at ≤ 500 uM; read-out: IC-50 Anti-PLA2 Activity.
The nature of experiment [4]: Auto-oxidation of phosphatidylethanolamine. The note with it: for % Oxidized PE / % Unoxidized PE: 24 hrs; for % Oxidized PE: PE alone 39.3%; for % Unoxidized PE: PE alone 51.1%. The format is biochemical.
The target of experiment [5] is T1, human synovial PLA2 (Homo sapiens, UniProt P14555).
T1 construct: from tissue; host or cells: human synovial (fluid)
T1 sequence (P14555 21-144): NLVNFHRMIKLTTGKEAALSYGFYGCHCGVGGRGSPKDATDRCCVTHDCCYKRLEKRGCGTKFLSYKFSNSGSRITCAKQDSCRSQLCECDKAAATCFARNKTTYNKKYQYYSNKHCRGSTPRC
The experiment can be described thus: Inhibition of human synovial PLA2 activity in vitro. To be noted: for IC50: each compound prepared as a sodium salt, FIG. 9, approximately. The format is biochemical. From the text:
FIG. 9 is a graph illustrating the ability of the compounds of the invention to inhibit PLA2 activity in vitro.

For experiment [6], the target named is T2, human synovial fluid PLA2 (SF-PLA2) (Homo sapiens, UniProt P14555).
T2 construct: intra-articular injection of human synovial fluid PLA2 (SF-PLA2) into the mouse paw; from tissue; host or cells: human synovial fluid
T2 sequence (P14555 21-144): T1 sequence (P14555 21-144)
The experiment can be described thus: Human SF-PLA2 induced mouse paw edema, oral administration. The format is in vivo. The note with it: for % Increase Weight: control 61%. The method, then:
The mouse paw edema is inhibited in dose related fashion by increasing concentrations of RISE-1 given orally 1.0 hours before induction of the edema by SF-PLA2.

The test system of experiment [7] is sperm PLA2. The experiment can be described thus: In vitro inhibition of PLA2 derived from sperm (FIG. 8). The format is biochemical, human.
For experiment [8], the target named is T3, platelet PLA2 (Homo sapiens, UniProt P14555).
T3 construct: from tissue; host or cells: platelets
T3 sequence (P14555 21-144): T1 sequence (P14555 21-144)
The experiment can be described thus: In vitro inhibition of PLA2 derived from platelets (FIG. 8). The format is biochemical.

The test system of experiment [9] is human polymorphonuclear leukocytes (PMNs). The experiment can be described thus: Inhibition of arachidonic acid release from prelabelled human PMNs. To be noted: Leukocyte, read-out: % Inhibition of arachidonic acid release.
Experiment [10] deals with T4, human plasma PLA2 (Homo sapiens, UniProt P14555).
T4 construct: from tissue; host or cells: human plasma
T4 sequence (P14555 21-144): T1 sequence (P14555 21-144)
The experiment in a line: In vitro inhibition of PLA2 derived from plasma (FIG. 8). The format is biochemical.

The subject of experiment [11] is rat adjuvant induced arthritis. The experiment in a line: Rat adjuvant induced arthritis. To be noted: in vivo.
The mark [12] stands for this setting: RISE-1 10 mg/kg orally 1.0 hours before SF-PLA2.
The mark [13] stands for this setting: RISE-1 30 mg/kg orally 1.0 hours before SF-PLA2.
[14] abbreviates: RISE-1 100 mg/kg orally 1.0 hours before SF-PLA2.

Where a name gives a salt, the structure may show the parent alone.

This note sets out measurements from patent US5659049A, “Antioxidant, antiphospholipase derivatives of ricinoleic acid” (Virginia Commonwealth University, priority 1995, dated 1997).

For the compound `Cc1cc(C(C)(C)C)c(O)c(C(C)(C)C)c1` [BHT, betahydroxytoluene, reference compound], the “Turbidity (430 nm)” value is 1.31 in [1] (100 uM, time 0 hrs, control 1.38) and 1.283 in experiment [1] (100 uM, time 24 hrs, control .387). Further, the Hydroperoxide in experiment [1] (100 uM, time 0 hrs, control 100) was determined as 119 nmols; in [1] (100 uM, time 24 hrs, control 378) it was 112 nmols.
As to `CCCCCCC(C/C=C\CCCCCCCC(=O)O)OC(=O)/C=C/C(=O)O` (centres unmarked) [PX-2], the IC50 in [2] and in experiment [3] was over 500 µM each time.
Turning to `CCCCCCCC/C=C\CCCCCCCC(=O)OC(C/C=C\CCCCCCCC(=O)O)CCCCCC` (centres unmarked) [PX-3, Ricinoleic Acid Oleic Acid Ester], the “Percent Protection” value in [4] (25 μM) is on record as 16%; in experiment [4] (50 μM), 16%; in experiment [4] (100 μM), 13%; in experiment [4] (250 μM) it was 22%; in experiment [4] (500 μM), 27%. Further, the IC50 is 5 to 10 µM in [5], over 500 µM in [2] and 7.2 µM in experiment [3].
Regarding `CCCCC/C=C\C/C=C\CCCCCCCC(=O)OC(C/C=C\CCCCCCCC(=O)O)CCCCCC` (centres unmarked) [PX-4, Ricinoleic Acid Linoleic Acid Ester], the “Percent Protection” value in [4] (25 μM) is 13%; in experiment [4] (50 μM), 22%; in experiment [4] (100 μM), 38%; in experiment [4] (250 μM) it was 53%; in experiment [4] (500 μM), 73%. Moreover, the IC50 in [5] is 5 to 10 µM; in experiment [2], 210 µM; in [3] it was 10 µM.
Regarding `CCCCCCCC/C=C\CCCCCCCCOC(=O)CCCCCCC/C=C\CC(CCCCCC)OC(=O)/C=C/C(=O)O` (centres unmarked) [PX-5, Oleyl Alcohol-Ricinoleate-Fumaric Acid Diester], the “Percent Protection” value in [4] (25 μM) amounted to 28%; in [4] (50 μM) it was 24%; in experiment [4] (100 μM), 31%; in experiment [4] (250 μM) it was 47%; in experiment [4] (500 μM), 62%. For the same compound, the IC50 was 5 to 10 µM in experiment [5], 300 µM in [2] and 5 µM in [3].
Turning to `CCCCCCC(O)C/C=C\CCCCCCCC(=O)OC(C/C=C\CCCCCCCC(=O)O)CCCCCC` (centres unmarked) [PX-6], the IC50 in experiment [2] stood at 300 µM; in experiment [3], 4.5 µM.
With `CCCCCCC(C/C=C\CCCCCCCC(=O)O)OC(=O)/C=C/C(=O)OC(C/C=C\CCCCCCCC(=O)O)CCCCCC` (centres unmarked) [PX-7, Diricinoleic Acid Fumarate Diester], the IC50 in experiment [2] is 130 µM; in [3] it was 7 µM.
The like results for `CCCCCCCC/C=C\CCCCCCCCOC(=O)CCCCCCC/C=C\CC(CCCCCC)OC(=O)/C=C\C(=O)O` (centres unmarked) [PX-8] were, in that order, 140 µM and 3.5 µM.
Regarding `CCCCCCCC/C=C\CCCCCCCC(=O)OCC(COC(=O)CCCCCCC/C=C\CCCCCCCC)(COC(=O)CCCCCCC/C=C\CCCCCCCC)NCCS(=O)(=O)O` [PX-13, TES Triolears], the ED50 in [6] (mouse, po, administered single dose orally, read-out: IC50 vs PLA2 induced mouse paw edema) is about 15 mg/kg.
Turning to `CCCCC/C=C\C/C=C\CCCCCCCC(=O)OCC(N)(COC(=O)CCCCCCC/C=C\C/C=C\CCCCC)COC(=O)CCCCCCC/C=C\C/C=C\CCCCC` [PX-14], the IC50 in experiment [2] was 70 µM; in experiment [3] it was 4.4 µM.
Regarding `CCCCC/C=C\C/C=C\CCCCCCCC(=O)OCC1(COC(=O)CCCCCCC/C=C\C/C=C\CCCCC)COC(=O)CN1C(=O)CCCCCCC/C=C\C/C=C\CCCCC` [PX-15], in experiment [2], the IC50 was over 500 µM.
In the case of `CCCCCCC(C/C=C\CCCCCCCC(=O)O)OC(=O)CCCCCCCCC(=O)O` (centres unmarked) [RISE-1, Ricinoleic Acid Sebacyl Ester], the “% Oxidized PE” value amounted to 42.0% in experiment [4] (25 uM) and 42.4% in [4] (100 uM). Besides, the “% Unoxidized PE” value in experiment [4] (25 uM) is 50.6%; in [4] (100 uM), 49.6%. Moreover, the “Inhibition of PLA2 derived from human synovial fluid” value in experiment [5] (FIG. 8) was “dose related, selective in vitro inhibition”. Also, the IC50 in experiment [5] was 5 to 10 µM. Besides, the “Turbidity (430 nm)” value is on record as 1.33 in experiment [1] (25 uM, time 0 hrs, control 1.38); “.524” in experiment [1] (25 uM, time 24 hrs, control .387); 1.47 in experiment [1] (50 uM, time 0 hrs, control 1.38); “.348” in [1] (50 uM, time 24 hrs, control .387). Besides, the Hydroperoxide in experiment [1] (25 uM, time 0 hrs, control 100) is listed as 109 nmols; in experiment [1] (25 uM, time 24 hrs, control 378), 437 nmols; in experiment [1] (50 uM, time 0 hrs, control 100), 109 nmols; in experiment [1] (50 uM, time 24 hrs, control 378) it was 428 nmols. Besides, in experiment [7], the “Inhibition of PLA2 derived from sperm” value is “dose related, selective in vitro inhibition”. The entries for the “% Protection” value in experiment [6] (setting [12]), in experiment [6] (setting [13]) and in experiment [6] (setting [14]) were 23%, 38% and 49%, respectively. The “% Increase Weight” value in [6] (setting [12]) was found to be 47%; in experiment [6] (setting [13]) it was 38%; in [6] (setting [14]), 31%. Besides, the “Inhibition of PLA2 derived from platelets” value in [8] was “dose related, selective in vitro inhibition”. For the same compound, the inhibition – broadly, the share of the control response that was lost under treatment – at 25 µM in [9] came to 0%. For the same compound, in [9], the inhibition at 50 µM was 19%. In addition, the inhibition at 75 µM in experiment [9] was 38%. Further, the inhibition at 100 µM in experiment [9] came to 72%. Further, the “Inhibition of PLA2 derived from plasma” value in [10] was “dose related, selective in vitro inhibition”. The “Inhibition of rat adjuvant induced arthritis” value in experiment [11] is given as “does not inhibit”.
